From patent publication US20240423953A1, “METHODS AND COMPOSITIONS FOR TARGETING SV2 PROTEINS FOR IMMUNE REGULATION” (THE REGENTS OF THE UNIVERSITY OF CALIFORNIA, priority 2021, published 2024)
Entries after “also recorded” stand apart in the source; their conditions may differ. Each block holds one molecule with its values, some of them ahead of it.

Key:
ST2L [1] = test: ST2L protein stability in primary MEFs treated with CHX (immunoblot, flow cytometry); assay type: cell-based, mouse
Description: (§1) Primary mouse embryonic fibroblast cells (MEFs) were prepared as previously described^35. Briefly, mouse embryos were collected around embryonic day 14. Visible organs such as the brain, liver, and spleen were removed, and the leftover tissue was quickly minced and incubated in 0.25% trypsin-EDTA for 2 hr at 37° C. Cells were then washed with media and seeded in DMEM with 10% FBS, 1% penicillin/streptomycin and 0.055 mM β-mercaptoethanol. Every three days cells were passaged. Starting at passage 2, cells were used for studies.
Dead cells were routinely excluded with Zombie UV Fixable Viability Kit (BioLegend) or Fixable Aqua Dead Cell Stain (Thermo Fisher Scientific). Lineage-positive cells were excluded by staining for B220 (RA3-6B2), […] (145-2C11), TCRβ (H57-597), TCRγδ (eBioGL3), Ter119 (Ter119), NK1.1 (PK136), CD11b (M1/70), and CD11c (N418). For surface staining CD45 (30-F11), KLRG1 (2F1), CD25 (PC61.5), CD127 (A7R34), Sca1 (D7), Thy1/CD90.2 (53-2.1), and ST2 (RMST2-2, eBioscience) were used. For intracellular staining, cells were fixed and permeabilized with the Transcription Buffer Set (BD Pharmingen) per manufacturer's instructions followed by staining with anti-GATA3 (TWAJ, eBioscience), anti-IL-5 (TRFK5, Biolegend) and anti-IL-13 (eBio13A, eBioscience). Stained cells were used for flow cytometry analysis using a LSRII or Attune NxT (Becton Dickinson, BD) flow cytometer. Data were analyzed using the FlowJo software. Different cell types were identified by the following gating strategies^36,37: lung ILC2s (CD45^+Lin KLRG1^+CD90^+ or CD45^+Lin GATA3^+CD90^+CD25^+), BM ILC2P (CD45^+Lin^− CD127^+CD25^+).
(§2) Protein extracts from cells or tissues were prepared using whole protein lysis buffer (WL buffer) containing 50 mM Tris (pH 8), 0.4M NaCl, 0.5% NP-40, 10% glycerol, 1 mM EDTA, 1 mM DTT, and 1 mM PMSF as described previously^39. To extract proteins from MEFs, cells were washed with PBS once and then lysed with WL buffer on ice for 30 min. Lung or brain tissues from mice that had been euthanized and perfused with cold PBS were directly homogenized in the presence of WL buffer or alternatively, tissues were briefly disrupted in PBS and the insoluble fractions were then lysed in WL buffer for protein extraction. Immunoblot analysis was performed using the following antibodies: anti-ST2L (R3880-2, Abiocode), anti-ST2 (M3880-1, Abiocode), anti-SV2A (M3004-1, Abiocode), anti-Tubulin (M0267-1b, Abiocode).

ST2L [2] = test: Immunoblot analysis of ST2L in lungs of LEV-treated mice; assay type: in vivo, mouse; conditions: LEV intranasal for 4 hr or daily for three consecutive days (3D), vs PBS
Source text: (§3) Sv2a^+/− mice on C57BL/6 129Sv mixed genetic background^21 were purchased from the Jackson laboratory (B6;129P2-Sv2a^tm1SudSv2b^tm1Sud/J) and were backcrossed to C57 background for at least 5 generations prior to use. Mice were housed under specific-pathogen-free conditions. Sex-matched littermates between 6 and 16 weeks of age were used for experiments if not otherwise indicated. C57BL/6 mice were purchased from the Jackson Laboratory or the UCLA animal core facility. C57BL/6 mice were randomly assigned to treatment groups after matching for sex and age. […] For the IL-33 or papain-induced lung inflammation models, mice were treated intranasally on days 1, 2, and 3. Bone marrows and lungs were harvested, processed, and analyzed on day 4. The inventors were not blinded to allocation during the studies. All studies were conducted in accordance with animal protocols approved by the Animal Research Committee of the University of California Los Angeles.
(§4) Protein extracts from cells or tissues were prepared using whole protein lysis buffer (WL buffer) containing 50 mM Tris (pH 8), 0.4M NaCl, 0.5% NP-40, 10% glycerol, 1 mM EDTA, 1 mM DTT, and 1 mM PMSF as described previously^39. To extract proteins from MEFs, cells were washed with PBS once and then lysed with WL buffer on ice for 30 min. […]

SV2A protein [3] = target: T1, SV2A protein (Mus musculus, UniProt Q9JIS5); test: Cell-free protein stability assay (lung or brain protein extracts, immunoblot with anti-SV2A); assay type: biochemical
T1 construct: from tissue; host or cells: lung and brain of C57BL/6 mice
Description: Proteins extracts were prepared by incubating WL buffer with brain or lung tissues that had been pre-washed with PBS. […] The reaction mixtures were subsequently incubated at 37° C. for 1 hr, and the reactions were terminated by adding 20 μl of 4×SDS sample buffer followed by denaturing at 95° C. for 5 min. The samples were then analyzed directly by immunoblot analysis.
These two models were tested using the in vitro cell-free protein stability assays. […] We prepared two groups of reaction mixtures by mixing 0.2 μg of brain protein extract from WT mice with an excessive amount of either brain protein extract or lung protein extract prepared from Sv2a^−/− pup.

BM ILC2P = test: Flow cytometry analysis of bone marrow ILC2P in LEV-treated mice; assay type: in vivo, mouse; conditions: LEV 17 mg/kg intranasal daily day 1, 2, 3; BM harvested day 4
Source text: as §3
(§5) Mice were euthanized and perfused with cold PBS. […]
(§6) Dead cells were routinely excluded with Zombie UV Fixable Viability Kit (BioLegend) or Fixable Aqua Dead Cell Stain (Thermo Fisher Scientific). […] Data were analyzed using the FlowJo software. […]

lung ILC2s [4] = test: Flow cytometry analysis of lung ILC2 responses in LEV-treated naive mice; assay type: in vivo, mouse; conditions: LEV 17 mg/kg intranasal daily day 1, 2, 3
Source text: as §3
Mice were euthanized and perfused with cold PBS. Lung lobes were diced into small pieces and incubated with 0.2 mg/mL collagenase P. 0.8 mg/mL Dispase II, 0.1 mg/mL DNase I in RPMI1640 containing 5% FBS for 1 hr at 37° C. before being mashed through […] cell strainers. Bone marrow cells were collected by flushing out the marrow from femurs and tibias using a syringe with PBS. Red blood cells were removed using RBC lysis buffer (Sigma-Aldrich, Cat #: R7757) according to the manufacturer's recommendations followed by 1×PBS wash. After saturating the Fc-receptors with CD16/CD32-blocking antibody (BioLegend), single-cell suspensions were incubated on ice with conjugated antibodies in PBS (Ca^2+ and Mg^2+-free).
Dead cells were routinely excluded with Zombie UV Fixable Viability Kit (BioLegend) or Fixable Aqua Dead Cell Stain (Thermo Fisher Scientific). Lineage-positive cells were excluded by staining for B220 (RA3-6B2), […] (145-2C11), TCRβ (H57-597), TCRγδ (eBioGL3), Ter119 (Ter119), NK1.1 (PK136), CD11b (M1/70), and CD11c (N418). […] Data were analyzed using the FlowJo software. […]

lung ILC2s [5] = test: Papain-induced mouse lung inflammation model, flow cytometry of lung ILC2s; assay type: in vivo; conditions: papain 50 μg + LEV 17 mg/kg intranasal daily day 1, 2, 3; day 4; vs papain alone
Source text: as §3, §5, §6

SV2A protein [6] = target: T1, SV2A protein; test: Immunoblot analysis of SV2A protein in lungs and brain of intranasally treated mice; assay type: in vivo
Source text: as §3, §4

Il13 and Il5 = test: Q-PCR analysis of Il13 and Il5 gene induction in primary MEFs treated with IL-33; assay type: cell-based, mouse; conditions: WT MEFs
Description: as §1
Quantitative real time polymerase chain reaction (Q-PCR) analyses were performed as described^38. Briefly, cDNA prepared using the iScript cDNA Synthesis kit (Bio-Rad) were analyzed by Q-PCR using the CFX-96 Real-Time Detection System (Bio-Rad). The Q-PCR primer sequences of genes were: Sv2a forward—[…] (SEQ ID NO:2), Sv2a reverse […] (SEQ ID NO:3), St2l forward […] (SEQ ID NO:4), St2l reverse […] (SEQ ID NO:5), sSt2 forward—[…] (SEQ ID NO:6), sSt2 reverse […] (SEQ ID NO:7). Il1rap forward—[…] (SEQ ID NO:8), Il1rap reverse—[…] (SEQ ID NO:9), Il5 forward—[…] (SEQ ID NO:10), Il5 reverse—[…] (SEQ ID NO:11), Il13 forward—[…] (SEQ ID NO:12), Il13 reverse—[…] (SEQ ID NO:13), Hprt forward—[…] (SEQ ID NO:14), Hprt reverse—[…] (SEQ ID NO:15), Gapdh forward—[…] (SEQ ID NO:16), Gapdh reverse—[…] (SEQ ID NO:17).

ST2L [7] = test: Immunoblot analysis of ST2L expression in primary MEFs treated with IL-33; assay type: cell-based, mouse
Description: as §1, §2

Sv2a mRNA = test: Q-PCR analysis of lung Sv2a gene expression in intranasally treated mice; assay type: in vivo, mouse; conditions: IL-33 100 ng intranasal, 4 hr
Source text: as §3, with “For the IL-33 or papain-induced lung inflammation models, mice were treated intranasally on days 1, 2, and 3. Bone marrows and lungs were harvested, processed, and analyzed on day 4.” left out
Quantitative real time polymerase chain reaction (Q-PCR) analyses were performed as described^38. Briefly, cDNA prepared using the iScript cDNA Synthesis kit (Bio-Rad) were analyzed by Q-PCR using the CFX-96 Real-Time Detection System (Bio-Rad). The Q-PCR primer sequences of genes were: Sv2a forward—[…] (SEQ ID NO:2), Sv2a reverse […] (SEQ ID NO:3), St2l forward […] (SEQ ID NO:4), St2l reverse […] (SEQ ID NO:5), sSt2 forward—[…] (SEQ ID NO:6), sSt2 reverse […] (SEQ ID NO:7). Il1rap forward—[…] (SEQ ID NO:8), Il1rap reverse—[…] (SEQ ID NO:9), Il5 forward—[…] (SEQ ID NO:10), Il5 reverse—[…] (SEQ ID NO:11), Il13 forward—[…] […]

T1 sequence (Q9JIS5 whole entry): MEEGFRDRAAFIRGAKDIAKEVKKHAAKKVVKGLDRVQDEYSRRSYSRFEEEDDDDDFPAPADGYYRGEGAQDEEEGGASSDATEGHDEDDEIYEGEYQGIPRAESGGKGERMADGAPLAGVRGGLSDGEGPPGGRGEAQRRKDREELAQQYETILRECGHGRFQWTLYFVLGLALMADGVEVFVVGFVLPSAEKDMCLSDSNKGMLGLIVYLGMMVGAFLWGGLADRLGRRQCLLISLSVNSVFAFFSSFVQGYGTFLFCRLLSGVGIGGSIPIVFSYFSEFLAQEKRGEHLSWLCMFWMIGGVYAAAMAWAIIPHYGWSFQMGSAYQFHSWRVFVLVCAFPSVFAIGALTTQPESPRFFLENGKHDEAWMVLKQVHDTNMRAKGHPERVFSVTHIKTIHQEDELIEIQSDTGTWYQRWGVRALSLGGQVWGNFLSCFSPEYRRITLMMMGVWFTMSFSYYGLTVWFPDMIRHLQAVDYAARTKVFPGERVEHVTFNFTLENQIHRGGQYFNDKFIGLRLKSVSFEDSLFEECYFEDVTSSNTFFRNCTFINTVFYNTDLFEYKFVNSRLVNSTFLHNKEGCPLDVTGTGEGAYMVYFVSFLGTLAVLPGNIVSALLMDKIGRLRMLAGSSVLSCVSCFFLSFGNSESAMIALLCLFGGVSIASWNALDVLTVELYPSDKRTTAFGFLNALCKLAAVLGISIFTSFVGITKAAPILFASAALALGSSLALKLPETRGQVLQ

Molecule: C[C@@H]1C[C@@H]([C@H](O)CC2CC(=O)NC(=O)C2)C(=O)[C@@H](C)C1 [CHX, cycloheximde]
ST2L expression (immunoblot) (ST2L [1]; Sv2a KO MEFs, 6 hr after CHX treatment): no longer detectable
reduction of percentage of ST2+ cells (flow cytometry) (ST2L [1]; Sv2a KO MEFs, CHX 20 hr): more than 15 fold
percentage of ST2+ cells after CHX (ST2L [1]; Sv2a KO MEFs, CHX 20 hr (from 13.7% untreated)): 0.78%
ST2L expression (immunoblot) (ST2L [1]; WT MEFs, 6 hr after CHX treatment): only modestly reduced
ST2L expression (immunoblot) (ST2L [1]; WT MEFs, CHX for 20 hr): remained to be detectable
reduction of ST2+ cells (flow cytometry) (ST2L [1]; WT primary MEFs, CHX 20 hr): about 3 fold
percentage of ST2+ cells after CHX (ST2L [1]; WT primary MEFs, CHX 20 hr (from 20.5% untreated)): 6.35%

Molecule: CC[C@@H](C(N)=O)N1CCCC1=O [LEV, (S)-(−)-α-ethyl-2-oxo-1-pyrrolidine acetamide]
ST2L protein in the lungs (immunoblot) (ST2L [2]): clear suppression; also recorded: reduced
degradation of brain SV2A protein with excess lung protein extracts from Sv2a-/- pup (SV2A protein [3]; 0.2 μg WT brain extract, 10 mM LEV): completely degraded
degradation of brain SV2A protein with excess brain protein extracts from Sv2a-/- pup (SV2A protein [3]; 0.2 μg WT brain extract, LEV 0.1 mM, 0.5 mM, 10 mM): did not cause the degradation
SV2A protein in brain extracts (SV2A protein [3]; brain extracts, LEV, similar conditions (37° C.)): failed to reduce
development of BM ILC2P (BM ILC2P): suppressed
populations of lung ILC2 cells producing IL-13 and IL-5 (lung ILC2s [4]; day 4): suppressed
reduction of the cell numbers of lung ILC2s (lung ILC2s [4]; lungs harvested day 4): about 50%
reduction of the frequency of lung ILC2s (lung ILC2s [4]; lungs harvested day 4): about 50%
frequency of lung ILC2s, papain-induced ILC2 responses (lung ILC2s [5]): reducing
production of IL-5 and IL-13 by lung ILC2s, papain-induced (lung ILC2s [5]): blocking
SV2A protein in the brain (immunoblot) (SV2A protein [6]; LEV 17 mg/kg intranasal, C57/BL6 mice): did not reduce

SV2A protein in the lungs (immunoblot) (SV2A protein [6]; IL-33 100 ng intranasal, 4 hr): reduction; also recorded: suppressed
B1: IL-33: alarmin cytokine that signals through its receptor ST2; used as stimulus (R&D) (protein, UniProt O95760 1-270, looked up)
Interleukin-33: MKPKMKYSTNKISTAKWKNTASKALCFKLGKSQQKAKEVCPMYFMKLRSGLMIKKEACYFRRETTKRPSLKTGRKHKRHLVLAACQQQSTVECFAFGISGVQKYTRALHDSSITGISPITEYLASLSTYNDQSITFALEDESYEIYVEDLKKDEKKDKVLLSYYESQHPSNESGDGVDGKMLMVTLSPTKDFWLHANNKEHSVELHKCEKPLPDQAFFVLHNMHSNCVSFECKTDPGVFIGVKDNHLALIKVDSSENLCTENILFKLSET
IL33-triggered induction of Il13 and Il5 (Q-PCR) (Il13 and Il5): significantly increased
level of ST2L (immunoblot) (ST2L [7]; Sv2a KO MEFs, IL-33 for 20 hr): dramatic reduction
level of ST2L (immunoblot) (ST2L [7]; WT MEFs, IL-33): not reduced
levels of Sv2a mRNA in the lungs (Q-PCR) (Sv2a mRNA): did not suppress
